For the data set, the system named is fungi and bacteria on leaf explants. In words: Leaf disinfection of cacao leaf explants (hypochlorite under vacuum). Also on record: species or system Theobroma cacao; cacao leaf disinfection: dose or concentration left out as unconfirmed. As for the experimental part: The leaves were cleaned with soap and rinsed with distilled sterile water for three times. Afterwards, the leaves were cut in pieces in sizes of 2 cm^2, disinfected by immersion in alcohol 70% for five minutes, and rinsed three times with ultrapure sterile water. Then, the leaf explants were immersed in 1% calcium hypochlorite or 20% sodium hypochlorite for 50-60 minutes in vacuum condition (70 k-pascal) and rinsed 3-5 times with ultrapure sterile water.

Consider `[Ca+2].[O-]Cl.[O-]Cl` [calcium hypochlorite], for which the “leaf death after disinfection” value (high concentration of calcium hypochlorite) was “high percentage of leaf death”. In addition, the cacao leaf disinfection entry (low concentration of calcium hypochlorite for 40 minutes, with vacuum) is recorded as “best treatment for cacao leaf disinfection”.
